For orientation: IC50 means the point on the concentration scale where inhibition reaches its midpoint.

Values after ≈ are worked out from the molar mass of the structure shown.

These results are taken from patent publication US10898580B2, “Isoquinolidinobenzodiazepines” (priority 2015, dated 2021).

One assay concerns HEL92.1.7. Kind of assay: Growth inhibition by payloads, CellTiter-Glo cell viability. The format is cell-based. To be noted: Homo sapiens, HEL 92.1.7, MDR +. The method, then:
(§1) The cytotoxicity of the compounds was evaluated using the CellTiter-Glo Luminescent Cell Viability Assay (Promega Cat # G7573) as described in the manufacturer's instructions (Arduengo, M., Cell Notes, 2003, 5:15-17). This assay contains a reagent that lyses cells and generates a “glow-type” luminescent signal proportional to the amount of adenosine triphosphate (ATP) present, which is a measure of cell growth.
(§2) Cells were seeded at 1000 cells per well in 50 μL of culture media into tissue culture 96-well flat-bottom plates. The perimeter wells of the plate were not used and 200 μL of media was added to the perimeter wells to prevent evaporation during incubation. 50 μL of the compound tested at twice the final concentration were then added to the wells in triplicate. Plates were incubated at 37° C., 5% CO2 for 72 hours before adding 100 μL CellTiter-Glo reagent to each well (excluding perimeter wells). Plates were then incubated at room temperature on a shaker for 10 minutes. After incubation, 100 μL of the supernatants were transferred to a solid white 96-well plate and luminescence was measured with a spectrophotometer. Percent viability was calculated based on untreated control: % viability=(treated/untreated)*100.
(§3) GI50: Concentration of compound required for 50% cell growth inhibition.
(§4) The cytotoxic activity of compounds CLT-D201, CLT-D501, CLT-D601 was tested against various cell lines in comparison with a pyrrolobenzodiazepine dimer labeled as PBD1 (structurally identical to SGD-1882, Spirogen Ltd.), having a formula: […]
In general terms: ATP-based viability assays read luminescence as a measure of living cells.

For a further assay, the system named is HL-60. The description is as above. The format is cell-based. To be noted: Homo sapiens, MDR −. The method, then: as §1, §2, §3, §4
A further assay has as its system HNT-34. The description is as above. The format is cell-based. Particulars: MDR +/−. The method, then:
as §1, §2, §3, §4

The test system of a further assay is KG1. The assay is described as above. Particulars: Homo sapiens, KG-1, MDR +. The format is cell-based. How it is done:
as §1, §2, §3, §4

Another assay relates to OCI-AML5. The description is as above. The format is cell-based. Particulars: Homo sapiens, OCI-AML-5, MDR NA. How it is done:
as §1, §2, §3, §4

Another assay deals with SHI. The assay is described as above. Particulars: MDR −. The format is cell-based. The method, then: as §1, §2, §3, §4
The subject of the next assay is TF-1. The description is as above. The format is cell-based. Particulars: Homo sapiens, MDR +. How it is done:
as §1, §2, §3, §4

A further assay concerns THP-1. The description is as above. The format is cell-based. Particulars: Homo sapiens, MDR −. The method, then:
as §1, §2, §3, §4

The next assay has as its system HL60 tumor cells. As to the kind of experiment: Orthotopic HL60 AML xenograft model. The format is in vivo, NOD/SCID mice. Particulars: 1 mg/kg, day 23 after inoculation. How it is done: Orthotopically engrafted HL60 tumor-bearing mice were treated with unconjugated C0 (1 mg/Kg) antibody and control ADC (3 mg/Kg) as compared with mice treated with C6-CLT-D202-ADC (3 mg/Kg). The percentage of human HL60 tumor cells in the bone marrow (left panel) and in the peripheral blood (right panel) is shown, the median bar and interquartile error bars are denoted for N=4-6 mice. The table (bottom) indicates the median, minimum, maximum, and interquartile percentage of human HL60 cells in the bone marrow and peripheral blood of treated mice.
Female 6-8 week-old NOD/SCID mice were sub-lethally irradiated with 2.5 Gy, and 5 million HL60 tumors were injected intravenously at one day post-irradiation into the mice. Following 6 days of tumor cell inoculation (˜0.1-1% engraftment in the bone marrow), mice were dosed 3 times, and once per week (q7DX3) with 3 mg/Kg of C6-CLT-D202 ADC or with the same amount of control C0-ADC. Following 23 days of tumor cell inoculation, bone, spleen, and peripheral blood were collected from the treated mice and total hematopoietic cells were isolated. The percentage of human cells in these tissues was determined by flow cytometry using anti-human CD33 and CD45 antibodies. Data were analyzed by Flowjo software, and plotted with Prism software.
Greater than 90% Tumor Growth Inhibition (TGI) was observed after administration with C6-CLT-D202 ADC.

For the compound `COc1ccc(C2=CN3C(=O)c4cc(OC)c(OCCCOc5cc6c(cc5OC)C(=O)N5C=C(c7ccc(N)cc7)C[C@@]5(C)C=N6)cc4N=C[C@]3(C)C2)cc1` [PBD1], the IC50 in the assay with HEL92.1.7 worked out at 0.00387 ng/mL; in the assay on HL-60 it was 0.0028 ng/mL (≈ 0.00371 nM); with HNT-34, 0.00149 ng/mL (≈ 0.00198 nM); in the assay on KG1, 0.66 ng/mL; in the assay on OCI-AML5 it was 0.00208 ng/mL (≈ 0.00276 nM); with SHI, 0.00547 ng/mL (≈ 0.00725 nM). In addition, the half-inhibitory concentration (IC50) was found to be 0.447 ng/mL in the assay with TF-1 and 0.0126 ng/mL (≈ 0.0167 nM) with THP-1.
With Palivizumab [C0], in the assay on HL60 tumor cells (Blood), the “percentage of human HL60 cells, 25% Percentile” value worked out at 36.025%; the “percentage of human HL60 cells, 75% Percentile” value amounted to 68.1%; the “percentage of human HL60 cells, Median” value turned out to be 56.5%; the “percentage of human HL60 cells, Minimum” value is 30.4%. For the same compound, in the assay on HL60 tumor cells (Bone marrow), the “percentage of human HL60 cells, 25% Percentile” value is recorded as 60.85%; the “percentage of human HL60 cells, 75% Percentile” value is 85.8%; the “percentage of human HL60 cells, Median” value was found to be 72.95%; the “percentage of human HL60 cells, Minimum” value is 55.9%.
For the compound `COc1cc2c(cc1OCCCOc1cc3c(cc1OC)C(=O)N1Cc4ccccc4CC1C=N3)N=CC1Cc3ccccc3CN1C2=O` (stereo not drawn) [CLT-D201], the IC50 in the assay on HEL92.1.7 was 0.0404 ng/mL; in the assay on HL-60, 0.002 ng/mL (≈ 0.00305 nM); in the assay on HNT-34, 0.014 ng/mL (≈ 0.0213 nM); in the assay with KG1 it was 2.45 ng/mL; in the assay on OCI-AML5, 0.00823 ng/mL (≈ 0.0125 nM); in the assay with SHI it was 0.0211 ng/mL (≈ 0.0321 nM). The 50% inhibitory concentration (IC50) with TF-1 came to 1.29 ng/mL; in the assay on THP-1, 0.0291 ng/mL (≈ 0.0443 nM).
